From US12507721B2, “Ready-to-use parenteral nutrition formulation” (BAXTER INTERNATIONAL INC., priority 2021, dated 2025)

Columns and labels:
[1] = Studies of vitamin B12 in lipid emulsions irrespective of oil source, pH or stabilizing agent; assay type: physicochemical
Procedure: (storage for 3 months at 40° C.), even though hydroxocobalamin seems to remain relatively stable for about 6 months at 40° C.

[2] = Storage of Glucose Batch 1 at 40° C./25% RH for 6 months; assay type: physicochemical; conditions: sterilization cycles of Example 7
Procedure: In a next step, the stability of vitamin B12 was examined in Glucose Batch 1 which seemed to be the most promising based on the results shown in Table 7. Accordingly, several bags were stored at 40° C./25% RH for 6 months (T6M). Batch Glucose 1 was analyzed at T6M to revisit the presence of vitamin B12 in either its cyanocobalamin or hydroxocobalamin form. In order to test the validity of the test, vitamins B1, B3 and B6 were tested together with vitamin B12 both after sterilization and then throughout shelf life.

[3] = Vitamin stability in 35% glucose solution during sterilization and storage; assay type: physicochemical; conditions: for Unsterilized T0 concentration / T1M40° C. concentration / T3M40° C. concentration / Cycle 3 T0 concentration / T6M40° C. concentration / Cycle 4 T0 concentration: 35% glucose solution; for T1M40° C. concentration: 1 month at 40° C.; for T3M40° C. concentration: 3 months at 40° C.; for Cycle 3 T0 concentration: C0 = 25 minutes; for Cycle 3 T0 concentration / Cycle 4 T0 concentration: after sterilization; for T6M40° C. concentration: 6 months at 40° C., B12 value (*) is the sum of cyanocobalamin and hydroxocobalamin; for Cycle 4 T0 concentration: C0 = 19 minutes
Procedure: For testing the stability of vitamin B12 in formulation as they are typically used in parenteral nutrition, a 35% glucose solution, a 14.2% amino acid formulation such as found, for example, in Olimel N9E (Baxter), and a 20% lipid emulsion such as found in Clinoleic 20% (Baxter) were supplemented with different vitamin combinations which always included vitamin B12. KCl was added into the glucose solution to understand if it has an effect on the stability of vitamin B12. Vitamin B1 was introduced as thiamin HCl. Ascorbyl palmitate was added to the lipid emulsion formulation as a stabilizing agent due to its antioxidant properties. In addition, two separate micellar solutions (“Vit A” and “Vit B”, see Table 9) comprising certain vitamins to be assessed with regard to degradation (B3, B6, B8, B9, B12, C) but formulated with different excipients as micellization agents were tested for vitamin B12 stability. Vit A consisted of a solution of mixed micelles with ascorbyl palmitate as a potential stability enhancer. Vit B was formulated with a mix of polysorbates, PEG and sorbitol to form micelles. The micellar solutions were prepared by mixing, under high speed, a solution composed of glycocholic acid and lecithins dissolved in water. In case of Vit B, the glycocholic acid and lecithin were replaced by PEG and polysorbate. All formulations were provided in standard flexible containers and overpouched with an aluminum overpouch for subsequent sterilization. For an overview over formulations and conditions see Table 9.
All samples were submitted to two different sterilization technologies. Steam sterilization targeting a F0=8 min was used for large volumes (400/800 ml, Cycle 2) and for small volumes (25/50 ml, Cycle 1) as lined out in Table 9 above. The same samples were sterilized by water spray sterilization with a serial tower continuous sterilization equipment with two different exposure times (Cycles 3 (25 min.) and 4 (19 min.)).
The vitamin recovery was then compared between the different sterilization cycles and formulations to understand the impact of the formulation and the sterilization technology used on their respective short- and long-term stability. Therefore, after sterilization, the samples were stored at 40° C./25% RH for 6 months to evaluate the recovery of vitamin B12 at T1M, T3M and T6M. Besides, backup samples were stored at 5° C. Finally, some samples were also stored at 25° C./40% RH to provide for real time stability data.

[4] = Selenium stability in trace element solutions with selenate, selenomethionine or selenite; conditions: for selenium concentration during storage: TE formulation pH 2.2, heat sterilized, conditions not optimized for DO, FIGS. 9-11
Procedure: (§1) Timepoint 0 corresponds to the results of TE dosage right after sterilization. […] Timepoints 1, 3 and 6 correspond to the results of TE dosage after 1 month, 3 months and 6 months storage at 40° C./25% RH.
as §1, §1
For the three tested solutions containing different forms of selenium, the selenium is mixed with other TE (Zn, Cu, Mn, F, I, Mo, Cr, Fe), which were introduced as chloride salts. The solutions were acidified to pH 2.2 using malic acid and underwent terminal heat sterilization prior to storage.

[5] = Impact of DO on selenium stability; mix of 9 trace elements; assay type: physicochemical; conditions: sterilized samples stored at 40° C., FIG. 5
Procedure: The impact of oxygen seems of major importance in the stability of selenite containing trace element formulations. […] To confirm this hypothesis, a regression test was performed between Se assay results and log(dissolved oxygen results). Only sterilized samples stored at 40° C. were considered as the sterilization and storage at high temperature seem to both increase the Se degradation.
The presence of oxygen promotes selenite stability. To ensure that it is not deleterious to another TE the stability of a mix of the 9 TE of interest (i.e. Zn, Cu, Cr, Mo, Mn, Fe, I, F & Se) was evaluated at pH 2.2 with 200 mM of malic acid (to ensure iodide stability) and stored in a glass bottle (so containing about 3 ppm of dissolved oxygen). The solution was heat sterilized and stored 6 months at 40° C. or 5° C. (T6M 40° C. and T6M 5° C., respectively).

[6] = pediatric PN formulation stored at 25° C.; cited from earlier work
[7] = 25 ml, Cycle 1 steam sterilization
[8] = 800 ml, Cycle 2 steam sterilization
[9] = 800 ml, Cycle 3 water spray sterilization
[10] = 800 ml, Cycle 4 water spray sterilization

C/C1=C2/[N-][C@H]([C@H](CC(N)=O)[C@@]2(C)CCC(=O)NC[C@@H](C)OP(=O)([O-])O[C@H]2[C@@H](O)[C@@H](n3cnc4cc(C)c(C)cc43)O[C@@H]2CO)[C@]2(C)N=C(/C(C)=C3N=C(/C=C4N=C1[C@@H](CCC(N)=O)C\4(C)C)[C@@H](CCC(N)=O)[C@]\3(C)CC(N)=O)[C@@H](CCC(N)=O)[C@]2(C)CC(N)=O.[Co+3].[OH-] [B12 HC, hydroxocobalamin]
time remaining relatively stable ([1]; at 40° C.): about 6 months

Cc1ncc(C[n+]2csc(CCO)c2C)c(N)n1 [Batch B1, thiamine]
degradation during sterilization [2]: no significant degradation

NC(=O)c1cccnc1 [Batch B3, Nicotinamide]
degradation during sterilization [2]: no significant degradation | Unsterilized T0 concentration ([3]; 25 ml (Table 10A)): 51.10 mg/L | T1M40° C. concentration [3, 7]: 49.30 mg/L | T3M40° C. concentration [3, 7]: 50.20 mg/L | Unsterilized T0 concentration ([3]; 800 ml (Table 10B)): 51.10 mg/L | Unsterilized T0 concentration ([3]; 800 ml (Table 11A)): 52.80 mg/L | Unsterilized T0 concentration ([3]; 800 ml (Table 11B)): 52.80 mg/L | T1M40° C. concentration [3, 8]: 50.60 mg/L | T3M40° C. concentration [3, 8]: 51.20 mg/L | Cycle 3 T0 concentration [3, 9]: 50.50 mg/L | T3M40° C. concentration [3, 9]: 50.30 mg/L | T6M40° C. concentration [3, 9]: 48.27 mg/L | Cycle 4 T0 concentration [3, 10]: 50.40 mg/L | T3M40° C. concentration [3, 10]: 51.00 mg/L | T6M40° C. concentration [3, 10]: 49.35 mg/L

Cc1ncc(CO)c(CO)c1O [Batch B6, pyridoxine]
degradation during sterilization [2]: no significant degradation | Unsterilized T0 concentration ([3]; 25 ml (Table 10A)): 6.40 mg/L | T1M40° C. concentration [3, 7]: 6.40 mg/L | T3M40° C. concentration [3, 7]: 6.50 mg/L | Unsterilized T0 concentration ([3]; 800 ml (Table 10B)): 6.40 mg/L | Unsterilized T0 concentration ([3]; 800 ml (Table 11A)): 6.61 mg/L | Unsterilized T0 concentration ([3]; 800 ml (Table 11B)): 6.61 mg/L | T1M40° C. concentration [3, 8]: 5.93 mg/L | T3M40° C. concentration [3, 8]: 6.00 mg/L | Cycle 3 T0 concentration [3, 9]: 6.23 mg/L | T3M40° C. concentration [3, 9]: 6.10 mg/L | T6M40° C. concentration [3, 9]: 6.04 mg/L | Cycle 4 T0 concentration [3, 10]: 6.27 mg/L | T3M40° C. concentration [3, 10]: 5.90 mg/L | T6M40° C. concentration [3, 10]: 6.03 mg/L

O=[Se](=O)(O)O [Selenate, sodium selenate]
selenium concentration during storage [4]: remained stable

O=[Se](O)O [selenite, sodium selenite]
oxygen amount sufficient to ensure stability in the trace element formulation [5]: around 0.5 ppm | stability after three months ([4]; TE solution pH 2.2 (malic acid), terminal heat sterilization, DO not strictly controlled, analysis stopped): lack of stability

C[Se]CC[C@H](N)C(=O)O [selenomethionine]
selenium concentration during storage [4]: remained stable

O=C1O[C@H]([C@@H](O)CO)C(O)=C1O [vitamin C, ascorbic acid]
time after which instability was presented [6]: 48 h

cyanocobalamin [B12 CC]
detection of cyanocobalamin after 6 months ([3]; standard PN glucose solution, Cycles 1 and 2 (steam sterilization), FIG. 4): no cyanocobalamin can be detected | detection of cyanocobalamin ([1]; T3M40° C. (storage for 3 months at 40° C.)): no more cyanocobalamin can be detected
